# From patent publication US10227315B2, “Mitochondrial uncouplers for treatment of metabolic diseases and cancer” (RUTGERS, THE STATE UNIVERSITY OF NEW JERSEY, priority 2016, dated 2019)
# How the values were obtained:
# [1] = system: mouse myoblast C2C12 cells; assay: Oxygen consumption rate (OCR) assay with Seahorse XF96 or XF24, mitochondrial uncoupling; type: cell-based; details: 10% fetal bovine serum, in the presence of oligomycin 2.5 μM, read-out: Cmin (minimal concentration to induce ATP synthase-independent OCR increase)
# Description: By definition, mitochondrial uncoupling is the decoupling of mitochondrial electron transport chain activity (mitochondrial oxidation) from ATP synthesis by mitochondrial ATP synthase. Technically, mitochondrial uncoupling activity is defined by the ability of a chemical compound to induce oxygen consumption of cells or isolated mitochondria in the presence of a mitochondrial ATP synthase inhibitor such as oligomycin. Accordingly, we determined mitochondrial uncoupling activity by oxygen consumption rate (OCR) assay with a Seahorse XF96 or a Seahorse XF24 instrument following the vendor's instruction, using mouse myoblast C2C12 cells growing in medium containing 10% fetal bovine serum. […] The minimal concentration (Cmin) of each compound under which OCR is induced in the presence of oligomycin, was determined.
# [2] = system: NIH-3T3 cells, or HepG2 cells; assay: Mitochondrial membrane potential assay, TMRE staining; type: cell-based; details: 2 h; two hours treatment, TMRE 100 nM; read-out: EC50, mitochondrial membrane potential reduction (TMRE staining reduced to about 50%)
# Procedure: Mitochondrial uncoupling may also lead to a reduction of mitochondrial membrane potential. We performed mitochondrial membrane potential assay using TMRE (tetramethylrhodamine ethyl ester) staining method with cultured mammalian cells, the NIH-3T3 cells, or HepG2 cells. Cells were seeded onto 6-well plates and cultured in DMEM medium supplemented with 10% fetal bovine serum and 2 mM glutamine. Cells were allowed to grow to logarithmic growth phase prior to experiments. The cells were treated with each individual compound at various concentrations for two hours, followed by staining with TMRE at final concentration of 100 nM for 15 minutes. The cells were then washed once with PBS, and examined under fluorescence microscopy. Cells treated with various concentrations of niclosamide ethanolamine were used as positive control. Reduction of mitochondrial TMRE staining was estimated as a quantification of mitochondrial uncoupling activity. […] The following table (Table II) summarizes the activity of individual compounds in reducing mitochondrial membrane potential in cultured mammalian cells.
SMILES,minimal effective concentration [1] [µM],EC50 [2] [µM]
"CN(C)CCc1cc(Cl)cc(C(=O)Nc2nc3ccc(C(F)(F)F)cc3s2)c1O [Compound 2, 5-Chloro-3-(2-(dimethylamino)ethyl)-2-hydroxy-N-(6-(trifluoromethyl)benzo[d]thiazol-2-yl)benzamide]",< 10,–
"CS(=O)(=O)NCCc1cc(Cl)cc(C(=O)Nc2nc3ccc(C(F)(F)F)cc3s2)c1O [Compound 3, 5-Chloro-2-hydroxy-3-(2-(methylsulfonamido)ethyl)-N-(6-(trifluoromethyl)benzo[d]thiazol-2-yl)benzamide]",< 10,–
"O=C(Nc1nc2ccc(C(F)(F)F)cc2s1)c1cc(Cl)cc2nc(C(F)(F)F)[nH]c12 [Compound 8, 5-Chloro-2-(trifluoromethyl)-N-(6-(trifluoromethyl)benzo[d]thiazol-2-yl)-1H-benzo[d]imidazole-7-carboxamide]",10 to 25,10 to 25
"Oc1cc(Nc2nc3ccc(C(F)(F)F)cc3s2)c(C(F)(F)F)cc1C(F)(F)F [Compound 9, 2,4-Bis(trifluoromethyl)-5-((6-(trifluoromethyl)benzo[d]thiazol-2-yl)amino)phenol]",> 25,> 25
"O=C(Nc1ccc([N+](=O)[O-])cc1Cl)c1cc(Cl)ccc1OC(=O)N1CCOCC1 [Compound 13, 4-Chloro-2-((2-chloro-4-nitrophenyl)carbamoyl)phenyl morpholine-4-carboxylate]",< 10,< 10
"O=C(Nc1ccc(C(F)(F)F)cc1Cl)c1cc(Cl)ccc1O [Compound 14, 5-Chloro-N-(2-chloro-4-(trifluoromethyl)phenyl)-2-hydroxybenzamide]",< 10,< 10
"O=C(Nc1ccc(F)cc1Cl)c1cc(Cl)ccc1O [Compound 15, 5-Chloro-N-(2-chloro-4-fluorophenyl)-2-hydroxybenzamide]",< 10,< 10
"N#Cc1ccc(NC(=O)c2cc(Cl)ccc2O)c(Cl)c1 [Compound 16, 5-Chloro-N-(2-chloro-4-cyanophenyl)-2-hydroxybenzamide]",< 10,< 10
"O=C(Nc1nc2c(F)cc(C(F)(F)F)cc2s1)c1cc(Cl)ccc1O [Compound 21, 5-Chloro-N-(4-fluoro-6-(trifluoromethyl)benzo[d]thiazol-2-yl)-2-hydroxybenzamide]",< 10,< 10
"O=C(Nc1nc2c(C(F)(F)F)cc(C(F)(F)F)cc2s1)c1cc(Cl)ccc1O [Compound 22, N-(4,6-Bis(trifluoromethyl)benzo[d]thiazol-2-yl)-5-chloro-2-hydroxybenzamide]",< 10,< 10
"O=C(Nc1nc2cc(C(F)(F)F)ccc2s1)c1cc(Cl)ccc1O [Compound 25, 5-Chloro-2-hydroxy-N-(5-(trifluoromethyl)benzo[d]thiazol-2-yl)benzamide]",> 25,> 25
"O=C(Nc1nc2cccc(C(F)(F)F)c2s1)c1cc(Cl)ccc1O [Compound 26, 5-Chloro-2-hydroxy-N-(7-(trifluoromethyl)benzo[d]thiazol-2-yl)benzamide]",> 25,> 25
"O=C(Nc1nc2c(C(F)(F)F)cccc2s1)c1cc(Cl)ccc1O [Compound 32, 5-Chloro-2-hydroxy-N-(4-(trifluoromethyl)benzo[d]thiazol-2-yl)benzamide ethanolamine]",< 10,< 10
"O=C(Nc1nc2ccc(C(F)(F)F)cc2s1)c1cc(Cl)ccc1O [Compound 33, 5-Chloro-2-hydroxy-N-(6-(trifluoromethyl)benzo[d]thiazol-2-yl)benzamide ethanolamine]",< 10,< 10
"Cc1cc(Cl)cc(C(=O)Nc2nc3c(C(F)(F)F)cccc3s2)c1O [Compound 34, 5-Chloro-2-hydroxy-3-methyl-N-(4-(trifluoromethyl)benzo[d]thiazol-2-yl)benzamide ethanolamine]",–,< 10
"O=C(Nc1nc2c(F)cc(F)cc2s1)c1cc(Cl)ccc1O [Compound 35, 5-Chloro-N-(4,6-difluorobenzo[d]thiazol-2-yl)-2-hydroxybenzamide ethanolamine]",–,< 10
"O=C(Nc1nc2ccc(C(F)(F)F)cc2s1)c1cc(Cl)cc(C2CC2)c1O [Compound 36, 5-Chloro-3-cyclopropyl-2-hydroxy-N-(6-(trifluoromethyl)benzo[d]thiazol-2-yl)benzamide]",< 10,< 10
"Cc1cc(Cl)cc(C(=O)Nc2nc3ccc(C(F)(F)F)cc3s2)c1O [Compound 37, 5-Chloro-2-hydroxy-3-methyl-N-(6-(trifluoromethyl)benzo[d]thiazol-2-yl)benzamide compound with (2R,3R,4R,5S)-6-(methylamino)hexane-1,2,3,4,5-pentaol (1:1)]",–,< 10
"Cc1cc(Cl)cc(C(=O)Nc2nc3cc(C(F)(F)F)ccc3s2)c1O [Compound 41, 5-Chloro-2-hydroxy-3-methyl-N-(5-(trifluoromethyl)benzo[d]thiazol-2-yl)benzamide]",< 10,< 10
"Cc1cc(Cl)cc(C(=O)Nc2nc3cccc(C(F)(F)F)c3s2)c1O [Compound 42, 5-Chloro-2-hydroxy-3-methyl-N-(7-(trifluoromethyl)benzo[d]thiazol-2-yl)benzamide]",> 25,> 25
"O=C(Nc1nc2ccc(C(F)(F)F)cc2s1)c1cc(Cl)cc(CO)c1O [Compound 49, 5-Chloro-2-hydroxy-3-(hydroxymethyl)-N-(6-(trifluoromethyl)benzo[d]thiazol-2-yl)benzamide]",> 25,> 25
"Cc1cc(Cl)cc(C(=O)Nc2nc3c(C(F)(F)F)cc(C(F)(F)F)cc3s2)c1O [Compound 50, N-(4,6-Bis(trifluoromethyl)benzo[d]thiazol-2-yl)-5-chloro-2-hydroxy-3-methylbenzamide]",< 10,< 10
"Cc1cc(Cl)cc(C(=O)Nc2nc3ccc(OC(F)(F)F)cc3s2)c1O [Compound 51, 5-Chloro-2-hydroxy-3-methyl-N-(6-(trifluoromethoxy)benzo[d]thiazol-2-yl)benzamide]",< 10,< 10
"CN(C)CCCc1cc(Cl)cc(C(=O)Nc2nc3ccc(C(F)(F)F)cc3s2)c1O [Compound 52, 5-Chloro-3-(3-(dimethylamino)propyl)-2-hydroxy-N-(6-(trifluoromethyl)benzo[d]thiazol-2-yl)benzamide]",< 10,–
"CN(C)Cc1cc(Cl)cc(C(=O)Nc2nc3ccc(C(F)(F)F)cc3s2)c1O [Compound 53, 5-Chloro-3-((dimethylamino)methyl)-2-hydroxy-N-(6-(trifluoromethyl)benzo[d]thiazol-2-yl)benzamide]",< 10,–
"CN(C)Cc1cc(Cl)cc(C(=O)Nc2nc3ccc(OC(F)(F)F)cc3s2)c1O [Compound 54, 5-Chloro-3-((dimethylamino)methyl)-2-hydroxy-N-(6-(trifluoromethoxy)benzo[d]thiazol-2-yl)benzamide]",< 10,–
"Cc1nc2cc(Cl)cc(C(=O)Nc3nc4ccc(C(F)(F)F)cc4s3)c2[nH]1 [Compound 56, 5-Chloro-2-methyl-N-(6-(trifluoromethyl)benzo[d]thiazol-2-yl)-1H-benzo[d]imidazole-7-carboxamide]",< 10,–
"CCc1nc2cc(Cl)cc(C(=O)Nc3nc4ccc(C(F)(F)F)cc4s3)c2[nH]1 [Compound 57, 5-Chloro-2-ethyl-N-(6-(trifluoromethyl)benzo[d]thiazol-2-yl)-1H-benzo[d]imidazole-7-carboxamide]",> 25,–
"O=C(Nc1nc2ccc(C(F)(F)F)cc2s1)c1cc(Cl)cc2nn[nH]c12 [Compound 58, 5-Chloro-N-(6-(trifluoromethyl)benzo[d]thiazol-2-yl)-1H-benzo[d][1,2,3]triazole-7-carboxamide]",> 25,> 25
"O=C(Nc1nc2c(F)cc(F)cc2s1)c1cc(Cl)cc2nn[nH]c12 [Compound 59, 5-Chloro-N-(4,6-difluorobenzo[d]thiazol-2-yl)-1H-benzo[d][1,2,3]triazole-7-carboxamide]",> 25,–
